Earlier results in US20230079706A1, “Solid Cleansing Compositions and Methods for the Same” (Colgate-Palmolive Company, priority 2021, published 2023).

System: melanin
Details: personal care compositions with lower than 2.0 wt % Kojic acid

In the case of `O=c1cc(CO)occ1O` [Kojic acid, 5-Hydroxy-2-(hydroxymethyl)-4H-pyran-4-one], the “Efficacy in the reduction of melanin and/or the inhibition of melanin production” value is listed as “poor to no efficacy”.
